Measurements as given in US8853234B2, “Quinolone analogs and methods related thereto” (Senhwa Biosciences, Inc., priority 2007, dated 2014).
pIC50: −log10 of the molar value. Like-named read-outs stand apart in the source and are kept apart here.

Experiments:
[1] = test system: A375 cell xenograft tumors; experiment: A375 cell xenograft tumor inhibition; type: in vivo, rodents; conditions: seven days
Description: (§1) Compounds A1, A2 and A3 also were tested for tumor inhibition in xenograft rodents. Rodents having A375 cell xenograft tumors were administered 100 mg/kg, 75 mg/kg and 100 mg/kg doses of Compound A1, A2 and A3, respectively, by oral delivery twice a day. […] Also, rodents having MiaPaCa xenograft tumors were administered 100 mg/kg doses of Compound A1 and A3 by oral delivery twice per day.

[2] = test system: a variety of cell types that are representative of different cancers; experiment: Alamar Blue cell viability assay, variety of cell types representative of different cancers (Tables 12-14); type: cell-based; conditions: read-out: IC50
Description: A representative cell-proliferation assay protocol using Alamar Blue dye (stored at 4° C., use 20 ul per well) is described hereafter.
96-Well Plate Setup and Compound Treatment
a. Split and trypsinize cells.
b. Count cells using hemocytometer.
c. Plate 4,000-5,000 cells per well in 100 μl of medium and seed into a 96-well plate according to the following plate layout. Add cell culture medium only to wells B10 to B12. Wells B1 to B9 have cells but no compound added.
d. Add 100 μl of 2× drug dilution to each well in a concentration shown in the plate layout above. At the same time, add 100 μl of media into the control wells (wells B10 to B12). Total volume is 200 μl/well.
e. Incubate four (4) days at 37° C., 5% CO2 in a humidified incubator.
f. Add 20 μl Alamar Blue reagent to each well.
g. Incubate for four (4) hours at 37° C., 5% CO2 in a humidified incubator.
h. Record fluorescence at an excitation wavelength of 544 nm and emission wavelength of 590 nm using a microplate reader.
In the assays, cells are cultured with a test compound for approximately four days, the dye then is added to the cells and fluorescence of […] dye is detected after approximately four hours. Different types of cells can be utilized in the assays (e.g., HCT-116 human colorectal carcinoma cells, PC-3 human prostatic cancer cells and MiaPaca human pancreatic carcinoma cells). Anti-proliferative effects of representative compounds are provided hereafter.
(§2) Inhibitory activity on cell proliferation of Compounds A1, A2 and A3 was determined using an Alamar Blue cell viability assay (e.g., Example 39 herein) using a variety of cell types that are representative of different cancers Inhibition values (IC50) are presented in micromolar concentrations in the following table (Table 12).
as §2, with “representative compounds of the invention” for “Compounds A1, A2 and A3”, “Table 13 and Table 14.” for “the following table (Table 12).”

rDNA = experiment: Quantitative PCR (QPCR) assay, rRNA inhibition (rDNA); type: cell-based; parameters: Selectivity: reference not given here; conditions: for Selectivity: not defined in the patent; for pIC50: rRNA inhibition from quantitative PCR assay
Text: In a specific assay embodiment, provided herein is a method for identifying a molecule that modulates ribosomal RNA (rRNA) synthesis, which comprises: contacting cells with a test molecule of Formula (I), (II), (III), (IV), (V), (VI), (VI′), (VII), or (VIII), contacting a ribosomal nucleotide sequence with one or more primers that amplify a portion thereof and a labeled probe that hybridizes to the amplification product, and detecting the amount of the amplification product by hybridization of the labeled probe, whereby a test molecule that reduces or increases the amount of amplification product is identified as a molecule that modulates rRNA synthesis. The labeled probe in some embodiments is added after the primers are added and the rRNA is amplified, and in certain embodiments, the labeled probe and the primers are added at the same time. The portion of ribosomal nucleotide sequence amplified sometimes is at the 5′ end of rDNA.
Real-time quantitative PCR (QPCR) method may be used to detect the changes of the target c-myc and the endogenous reference GAPDH gene copies in the same tube. Generally, cells (15,000 cells/well) are seeded on 96 well flat bottom plates (Corning, N.Y.) and incubated under normal growth conditions for overnight. The next day, the culture medium is exchanged for that containing anticancer drugs at various concentrations and incubated for 4 hrs in a humidified atmosphere of 5% CO2 at 37° C. Total RNA (tRNA) is extracted using the RNeasy 96 Kit (QIAGEN, CA). The concentration of the tRNA is determined by the RiboGreen RNA Quantitation Reagent (Molecular Probes, OR).
A reverse-transcription (RT) reaction may be conducted using 50 ng of tRNA from each well in a 25 μl reaction containing 1× TaqMan RT buffer, 2.5 uM random hexamers, 5.5 mM MgCl2, 0.5 mM each deoxynucleoside triphosphate (dNTP), 30 U MultiScribe Reverse Transcriptase, and 10 U RNase inhibitor. RT reactions are incubated for 10 min at 25° C., reverse-transcribed for 30 min at 48° C., inactivated for 5 min at 95° C., and placed at 4° C. All RT reagents may be purchased from Applied Biosystems, CA.
Real-Time QPCR reaction may be performed in a 50 μl reaction containing the 5 μl of cDNA, 1× Universal PCR Master Mix, 1× c-myc Pre-Developed Primers and Probe set, and 0.8×GAPDH Pre-Developed Primers and Probe set. Because of the relative abundance of GAPDH gene in Hela, GAPDH primers and probe concentration may be adjusted to get accurate threshold cycles (CT) for both genes in the same tube. The threshold cycle (CT) indicates the fractional cycle number at which the amount of amplified target reaches a fixed threshold. By doing so, the GAPDH amplification is stopped before it can limit the common reactants available for amplification of the c-myc. The ΔRn value represents the normalized reporter signal minus the baseline signal. ΔRn increases during PCR as amplicon copy number increases until the reaction approaches a plateau.
The c-myc probe is labeled with 6FAM™ dye-MGB and the GAPDH probe is labeled with VIC™ dye-MTB. Preincubation is performed for 2 min at 50° C. to activate AmpErase UNG enzyme and then for 10 min at 95° C. to activate AmpliTaq DNA Polymerase. DNA is amplified for 40 cycles of 15 sec at 95° C. and 1 min at 60° C. Human c-myc and GAPDH cDNA are amplified, detected, and quantitated in real time using the ABI Prism 7000 Sequence Detection system (Applied Biosystems, CA), which is set to detect both 6-FAM and VIC reporter dyes simultaneously.
The data may be analyzed using the ABI PRISM Sequence Detection System and Microsoft Excel. Relative quantitation is done using the standard curve and comparative CT method at the same time, and both methods gave equivalent results. The cycle at which the amplification plot crosses the CT is known to accurately reflect relative mRNA values. (See, Heid, et al., Genome Res. (1996) 6:986-994; Gibson, et al., Genome Res. (1996) 6:995-1001). […]

[3] = Cassette dosing oral pharmacokinetics in ICR mice; type: in vivo; conditions: ICR (IcrTac:ICR), mouse; cassette oral dose 25 mg/kg, female ICR mice, plasma, 0-8 h, none in table
Description: A cassette dosing procedure was utilized to determine pharmaceutical properties of compounds disclosed herein. In this procedure, compounds are selected for each cassette (i.e., cocktail) on the basis that mass spectrometric signals for each compound will not interfere with one another upon mass spectrometric analysis (e.g., will not overlap). The concentration of each compound in the dosing cassette often is about 20 mg/mL to achieve an oral dose level of 25 mg/kg in ICR mice. Aspects of the cassette dosing procedure are described hereafter.
Prepare 0.5 mL of 20 mg/mL dosing solution (in PBS or formulation vehicle) of 12 test compounds. Dilute a dosing solution 20 fold by transferring 10 μL of the stock solution into 190 μL acetonitrile containing 0.1% formic acid to achieve a final concentration of 1 mg/mL. Dilute further a 1 mg/mL solution 1,000 fold by transferring 1 μL of the stock solution into 999 μL acetonitrile containing 0.1% formic acid to achieve a final concentration of 1 μg/mL. Use the 1 μg/mL solution for mass spectrometric method development based on direct infusion. Determine parent/daughter mass spectra of each compound using multiple reaction monitoring (MRM). Compare parent/daughter mass spectra of each compound to assure no cross-reaction interference during LC-MS/MS measurements. Based on MRM mass spectra determine the composition of all cassettes.
Mix 250 μL of four prepared dosing solutions and an oral PK internal standard (20 mg/mL each) according to cassette design to achieve a final concentration of 4 mg/mL. Vortex cassettes rigorously and ultra-sonicate to obtain a clear solution or homogeneous suspension. Use the cassette solutions to dose animals by oral route of administration at 25 mg/kg.
All in vivo experiments follow protocols approved by the Animal Use and Care Committee. Female ICR mice (IcrTac:ICR), 8-10 weeks of age are obtained from Taconic (Hudson, N.Y.). Mice are housed on a 12 h/12 h light/dark cycle with ad libitum access to water and food. After a minimum two week acclimation period, the mice are randomized into groups with a minimum group size of four. The animals used for pharmacokinetic studies have a body-weight range of 25-35 g. A 25 mg/kg (4 mg/ml) dose of a cassette described in Example 1 is orally administered to mice that have been fasted overnight.
After compound administration, serial blood samples are collected via retro-orbital puncture with a capillary tube at various time points (15, 30 minutes and 1, 2, 4, 6 and 8 hours). The samples are transferred to a heparinized 0.5 mL microcentrifuge tube and placed on ice. Plasma is separated by centrifugation and samples are stored at −80° C. until assay.
Dilute a cassette dosing solution (4 mg/mL) four fold by transferring 25 μL of the stock solution into 75 μL of 50% acetonitrile containing 0.1% formic acid to achieve the concentration of 1 mg/mL. Dilute this stock solution further by serial dilutions to make 0.01, 0.1, 1 and 5 μg/mL working standard solutions.
Prepare 500 mL of 0.5 μg/mL solution of bioanalytical internal standard using 100% acetonitrile with 0.1% formic acid. Store the quenching solution in a tightly sealed bottle at 4° C.
Transfer 15 μL of blank mouse plasma to a 96 well plate and precipitate plasma proteins by pipetting of 120 μL of quenching solution to all plasma aliquots. Cover the plate with a matching plate mat and mix well for 30-60 seconds using a vertical multi-tube shaker.
Add 15 μL of the working standard solution of corresponding cassette to quenched plasma and vortex the plate for an additional 30-60 seconds. Then, centrifuge the plate at 4,000 rpm for 10 minutes at 4° C. Without disturbing the plasma protein pellet, transfer 120 μL of the supernatant to a new 96 well plate and dry the sample under nitrogen using a TurboVap® plate evaporator (Caliper Life Sciences; Hopkinton, Mass.). Reconstitute dried residues with 120 μL 20% acetonitrile containing 0.1% formic acid. […]

MiaPaCa xenograft tumors = experiment: MiaPaCa xenograft tumor inhibition; type: in vivo, rodents; conditions: 100 mg/kg oral twice per day, twenty-two days
Description: as §1

[4] = Homo sapiens, A-375, A375, Skin, Epithelial
[5] = Homo sapiens, BXPC-3, BXPC3, Pancreas, Epithelial
[6] = Homo sapiens, HCT-116, HCT-116, Colorectal, Epithelial
[7] = Homo sapiens, HL60/MX2, HL60/MX2, Hematopoetic, Lymphoma
[8] = Homo sapiens, HL-60, HL60, Hematopoetic, Lymphoma
[9] = Homo sapiens, HT-29, HT-29, Colorectal, Epithelial
[10] = Homo sapiens, Jurkat, Hematopoetic, Lymphoma
[11] = Homo sapiens, K562, K562, Hematopoetic, Lymphoblast
[12] = Homo sapiens, LNCaP, Prostate, Fibroblastoid
[13] = Homo sapiens, MDA-MB-231, MDA-MB-231, Breast, Epithelial
[14] = Homo sapiens, MIA PaCa-2, Miapaca-2, Pancreas, Epithelial
[15] = Homo sapiens, NCI-H460, H460, Lung, Epithelial
[16] = Homo sapiens, NCI-H1299, H1299, Lung, NSCL
[17] = Homo sapiens, SAOS-2, Saos-2, Bone, Epithelial
[18] = Homo sapiens, SK-MES-1, SK-MES-1, Lung, Sqaumous carcinoma
[19] = Homo sapiens, SK-OV-3, SK-OV-3, Ovary, Epithelial
[20] = Homo sapiens, U2OS, Bone, Epithelial
[21] = Miapaca-R5, Pancreas, Epithelial

Row | Compound | pIC50 [2, 4] | pIC50 [2, 5] | pIC50 [2, 6] | pIC50 [2, 7] | pIC50 [2, 8] | pIC50 [2, 9] | pIC50 [2, 10] | pIC50 [2, 11] | pIC50 [2, 12] | pIC50 [2, 13] | pIC50 [2, 14] | pIC50 [2, 15] | pIC50 [2, 16] | pIC50 [2, 17] | pIC50 [2, 18] | pIC50 [2, 19] | pIC50 [2, 20] | pIC50 [2, 21] | pIC50 ([2]; PC-3, Prostate, Epithelial) | Selectivity (rDNA) | other results
1 | Cc1cnc(CNC(=O)c2c(=O)c3ccc(N4CCCN(C)CC4)nc3n3c2sc2ccccc23)cn1 [Compound A2] | 7.64 | 7.46 | 7.49 | 6.83 | 7.08 | 7.38 | 7.60 | 7.38 | 7.54 | 7.28 | 7.44 | 7.05 | 7.16 | 6.91 | 7.68 | 7.19 | 7.05 | 7.47 | 7.05 |  | A375 tumor growth inhibition relative to untreated control group ([1]; 75 mg/kg oral twice a day): significantly inhibited A375 tumor growth; pIC50 ([2]; Homo sapiens, COLO 205, COLO-205, Colorectal, Epithelial): 7.02
2 | O=C(NCc1ccccn1)c1c(=O)c2cc(F)c(N3CCOCC3)nc2n2c1sc1ccccc12 |  |  |  |  |  |  |  |  |  |  |  |  |  |  |  |  |  |  |  | 1 | pIC50 (rDNA): 4.65; AUC(0-t) [3]: 90600 ng·h/mL
3 | O=C(NCCNC1CC1)c1c(=O)c2ccc(N3CCOCC3)nc2n2c1sc1ccccc12 [Compound A3] | 7.15 | 7.15 | 7.03 | 6.66 | 6.80 | 6.99 | 7.22 | 6.92 | 7.35 | 6.86 | 6.91 | 6.91 | 6.99 | 6.60 | 6.87 | 6.55 | 6.32 | 6.88 | 6.25 |  | A375 tumor growth inhibition relative to untreated control group ([1]; 100 mg/kg oral twice a day): significantly inhibited A375 tumor growth; MiaPaCa tumor growth inhibition relative to untreated control group (MiaPaCa xenograft tumors): significantly inhibited MiaPaCa tumor growth; pIC50 ([2]; Homo sapiens, MCF7, MCF-7, Breast, Mammary carcinoma): 6.57; pIC50 ([2]; Homo sapiens, PANC-1, PANC-1, Pancreas, Epithelial): 6.99
4 | CN1CCN(NC(=O)c2c(=O)c3cc(F)c(N4CCOCC4)nc3n3c2sc2ccccc23)CC1 |  |  |  |  |  |  |  |  |  |  |  |  |  |  |  |  |  |  |  | 89 | pIC50 (rDNA): 6.99; AUC(0-t) [3]: 4360 ng·h/mL
